The source of these data is a melting point compilation (Tetko et al.; mined from patent text by program, amines drawn as free bases though some values may be those of a salt).

Bounds are passed on as bounds.

Take `Cc1ccc(S(=O)(=O)OCCc2cccc3[nH]cc(S(=O)(=O)c4ccccc4)c23)cc1`: the melting point (usually the temperature, or range, at which the solid turns liquid) lay in the range of 58 to 60 °C. The same measure for `COc1ccc2[nH]c(C(=O)c3ccccc3)cc2c1`: 159 to 161 °C; for `CCOC(=O)Cc1ccc(C(=O)c2ccccc2)cc1[N+](=O)[O-]`: 61 to 62 °C. The same measure for `NCC1COc2ccc3[nH]c(=O)oc3c2O1` (stereo unspecified): above 250 °C; for `CCCC[C@H](NC(=O)[C@H](CC(C)C)NC(=O)c1ccc(F)c(C(F)(F)F)c1)C(=O)CSCc1ccco1`: 112 to 114 °C; for `Cc1nn(C)c(F)c1C(=O)Nc1ccccc1C(C)C(O)C(C)C` (stereo unspecified): 118 °C. For `Cc1c(CNCC2CCOCC2)n(C)c2c(C)c(NC(=O)c3ccc(OC[C@@H]4CCCO4)cc3)ccc12`, the melting point was 173 to 174 °C. Consider `CC(C)C(NC(=O)OCc1ccccc1)C(=O)NC(Cc1ccccc1)C(O)C(Cc1ccccc1)NC(=O)C(NC(=O)OCc1cccnc1)C(C)C` (stereo unspecified), for which the melting point fell in the range of 177 to 178 °C. In the case of `CCCCCCCCCCCCCCCCCCOCC(CBr)OCCCCCCCCCCCCCCCCCC` (stereo unspecified), the melting point was 38 to 38.8 °C.

The molecule `CC(C)(C)OC(=O)C(Nc1ccccc1)c1ccc(Cl)cc1` (racemic) displayed a melting point of 98 °C. With `CCC1(c2ccc(=O)[nH]n2)CCCCC1`, the melting point fell in the range of 138 to 140 °C. As to `O=C(O)c1ccc(Cl)cc1OCCN1CCC(c2cn(Cc3ccoc3)c3ncccc23)CC1`, the melting point was 81.6 to 83.3 °C. In turn, `O=C(O)CSC(c1ccccc1)c1ccccc1` showed a melting point of 126 to 129 °C. The same measure for `COC(=O)CCc1cc(C(=O)c2ccccc2Cl)c(NC(=O)CBr)s1`: 104 to 106 °C. As for `NS(=O)(=O)c1ccc(-c2noc(-c3cnn4c(C(F)(F)F)cc(-c5ccc(C(F)(F)F)cc5)nc34)n2)s1`, the figure is 276 °C; as for `C/C(=C\c1ccc(-c2ccccc2)cc1)C(=O)O`, 178 °C; as for `Cc1cc(N)cc2c1NC(=O)CC2C` (stereo unspecified), 207 to 210 °C.

As for `Cc1cc(C#N)cc(C(=O)Nc2ccc(F)cn2)n1`, the melting point amounted to 204 °C. The molecule `CC(=O)NCC1CN(c2ccc(N3CCN(C(=O)COC(=O)CCCN(C)C)CC3)c(F)c2)C(=O)O1` (stereo unspecified) gave a melting point of 69 to 71 °C. Take `CCn1cc(C(=O)NCc2ccc(Cl)cc2)c(=O)c2sccc21`: the melting point lay in the range of 189 to 192 °C. In the case of `CCN(c1ccc(Cl)cc1C(=O)O)S(=O)(=O)c1ccc(C)cc1`, the melting point was 163 to 165 °C.

In the case of `Cc1cc(C)c(CC(=O)O)cc1C`, the melting point lay in the range of 123 to 125 °C. The same measure for `O=C(CN1CCOCC1)N1CCN(c2ccc(O)cc2)CC1`: 197 °C. As for `FC(F)(F)c1cc(Br)c(OCc2ccccc2)c(OCc2ccccc2)c1`, the figure is 79 to 80 °C; as for `COc1cc(C)nc(-c2cnnn2NS(=O)(=O)c2ccccc2Cl)n1`, 139 °C. On to `CC(=O)c1cn(Cc2ccccc2)c(=O)[nH]c1=O`, for which the melting point was in the range of 196 to 197 °C. Consider `Cc1cc(S(F)(F)(F)(F)F)ccc1C(=O)NC(=N)N`, for which the melting point is 183 to 184 °C. For `O=C(NO)c1ccc(C(=O)NC/C=C/c2ccccc2)cc1`, the melting point is 169 to 170 °C.

In the case of `COc1ccc(-c2ccc(C(=O)O)cc2)cc1`, the melting point was 250 to 254 °C. Turning to `CN1C(=O)C(C(=O)Nc2ccccc2)c2cc3c(cc2S1(=O)=O)CCCC3` (stereo unspecified), the melting point fell in the range of 203 to 204 °C. The same measure for `CC(C)=CCCC(C)C1CCC2C3CCC4CC(O)CCC4(C)C3CCC12C` (stereo unspecified): 117 to 118 °C; for `COc1ccc(-c2cc(C(=O)O)c(=O)n(CC3CC3)n2)cc1F`: 169 to 171 °C.

In the case of `Cc1nnc2n1-c1sc(CCc3ccc(Cl)cc3)cc1C(c1ccccc1Cl)=NC2`, the melting point fell in the range of 162 to 164 °C. In turn, `COc1ccc(-c2nc3cnccc3[nH]2)c(O)c1` had a melting point of 255 °C.

For `Cc1c(N(C)C)c(F)cc2c(=O)[nH]c(=O)n(C3CC3)c12`, the melting point was 238 to 239 °C. Take `CNC(=O)NC1CCC(=O)c2sccc21` (stereo unspecified): the melting point was 212 to 215 °C. Molecule `O=C(Nc1ccc(Cl)c(C(F)(F)F)c1)N1COc2cc(Oc3ccnc(Cl)n3)ccc21` gave a melting point of 140 to 142 °C. Regarding `CC(=O)SCCNC(=O)[C@H](CSC(=O)C(C)(C)C)NC(=O)C(C)C`, the melting point is 101 to 103 °C. Molecule `CC(C)CS(=O)(=O)c1ccnc(OS(C)(=O)=O)c1` yielded a melting point of 75.5 to 76.5 °C. `COc1cc(C(=O)Cc2ccccc2)cc(Cl)c1Cl` displayed a melting point of 126 to 129 °C. The same measure for `CC(=O)Nc1c(C#N)cnn1-c1c(F)c(F)c(C(F)(F)F)c(F)c1F`: 153 to 154 °C; for `Cc1sc(NS(=O)(=O)c2ccc(-c3ccccc3)cc2)nc1CC(=O)N1CCOCC1`: 204 to 206 °C.

Consider `COc1ccc(-c2nnc(N)nc2-c2ccc(OC)cc2)cc1`, for which the melting point was 179 to 181 °C. For `O=Cc1c(F)cc(F)cc1-c1ccc(F)cc1`, the melting point was in the range of 69 to 71 °C.

The molecule `COc1cccc2c1sn1c3ccccc3c(=O)cc21` returned a melting point of 245 to 251 °C.

`CSC[C@H](NC(C)=O)C(=O)NO` registered a melting point of 126 to 127 °C.

For `CC(Cl)(Cl)C(NC(=O)c1cccc(F)c1)NC(=NC#N)Nc1ccc(Cl)nc1` (stereo unspecified), the melting point was in the range of 191 to 192 °C.

For the molecule `COc1c(O)c(C)c(CN2CCOCC2)c(O)c1OC`, the melting point lay in the range of 127 to 130 °C. As to `CCOC(=O)NNC(=O)CC(F)=C(F)F`, the melting point amounted to 110 °C. As to `CCNC(=O)n1nc(Oc2ncc(C(F)(F)F)cc2Cl)c(Cl)c1C`, the melting point was in the range of 111 to 112 °C. Molecule `CC(=O)NOC(=O)Cc1cnc2ccccc2c1O` yielded a melting point of 224 to 225 °C. `COC(=O)C(Oc1ccc(C2CCCCC2)cc1)c1ccc(Oc2ccc(Cl)cc2)cc1` (stereo unspecified) registered a melting point of 122 to 124 °C.

On to `N#CC(=Cc1cc(O)c(O)c([N+](=O)[O-])c1)C(=O)NCCCO`, for which the melting point fell in the range of 223 to 228 °C. Regarding `CC(C)CCc1c(-c2ccc(S(N)(=O)=O)cc2)cnn(-c2ccc(F)c(F)c2)c1=O`, the melting point fell in the range of 171 to 173 °C. On to `CC(C)CC1(C(CC(C)N2C(=O)c3ccccc3C2=O)C(=O)NO)CCN(CCc2ccccc2)C1=O` (stereo unspecified), for which the melting point was 113 to 114 °C. For the molecule `O=C(NC1CCCc2cc(C(=O)O)ccc21)OCc1ccccc1` (stereo unspecified), the melting point is 203 to 205 °C. The same measure for `COc1ccc(C2=C(CC(C)N)C(=O)NCCC2)cc1` (stereo unspecified): 131 to 133 °C; for `NCC(O)CSc1ccccc1` (stereo unspecified): 57 to 61 °C. As to `COCC(=O)Nc1ccc2ncnc(Nc3cccc(I)c3)c2c1`, the melting point was 159 to 163 °C.

In turn, `O=C1OCCC1N1CCCC1=O` (stereo unspecified) yielded a melting point of 80 to 81 °C. As to `CC1(C)N=C(c2ccccc2F)c2cc([N+](=O)[O-])cc(Br)c2NC1=O`, the melting point amounted to 164 °C. For the molecule `O=C(Nc1ccccc1)c1ccc(Nc2ccccc2)nc1`, the melting point fell in the range of 264 to 266 °C.

For the molecule `O=C(CBr)Nc1ccc(Cl)cc1C(=O)c1ccc(O)cc1`, the melting point lay within 201 to 203 °C.

Take `ClCCCCCOc1ccc(Br)c(CCOCc2ccccc2)c1`: the melting point lay within 54 to 55 °C. With `Cc1nnc(CN2C(=O)c3ccccc3C2=O)n1-c1ccc(Cl)cc1C(=O)c1ccccc1`, the melting point fell in the range of 215 to 218 °C. As for `Cc1c(C=NO)c2ccccc2n1-c1ccc(OCc2ccccc2)c(F)c1`, the melting point was 167 to 168 °C. For `COc1cc2c(cc1OC)=C1C(C#N)SC(=N)N1CC=2` (stereo unspecified), the melting point is 229 to 230 °C. In turn, `O=C1C(=O)c2ccc(Br)cc2C2=C1SCC1(CCN(CC(O)COc3ccc4cc(Br)ccc4c3)CC1)O2` (stereo unspecified) came in with a melting point of 104 to 105 °C. The molecule `CC(C)Oc1cccc(-n2c(NC(=O)Nc3ccc(Br)cc3)nc3ccccc3c2=O)c1` returned a melting point of 230 to 233 °C.

Molecule `CC(=O)Nc1ccc(S(=O)(=O)Nc2cscn2)cc1` displayed a melting point of 231 to 232 °C. `O=c1[nH]c2cc(F)c(F)cc2c(=O)n1OCc1ccccc1` returned a melting point above 250 °C. Take `COc1cccc(C(=O)Nc2ccc3ccc(Cl)nc3n2)c1`: the melting point was 178 °C. The same measure for `Fc1ccc2[nH]ccc2c1Cl`: 41 to 43 °C; for `CNc1nc(C=CC(=O)OC)c(-c2ccncc2)s1`: 166 to 167 °C. Molecule `CCc1cnc(Nc2ccccn2)s1` showed a melting point of 113 °C. `COc1c2c(c(OC)c(OC)c1OC)CCC(CCn1nnc3ccccc31)CC2` came in with a melting point of 99 to 101 °C. As for `C=C1c2ccccc2CC(N)c2ccccc21` (stereo unspecified), the figure is 84.5 to 86.5 °C; as for `C=C1SC(=O)N(c2ccc3cc(-c4ccc(OC)c(-c5ccccc5)c4)ccc3c2)C1=O`, 221 to 224 °C; as for `CSc1ccc(Nc2cc(-c3nnc(C)o3)ccn2)cc1`, 203 to 204 °C. For `CN(C)C(=O)COc1cccc(C=Cc2ccc3ccccc3n2)c1`, the melting point was in the range of 104 to 106 °C. As for `COC(=O)/C=C/c1cnc2ccccc2c1`, the figure is 118 to 120 °C; as for `CC(C)COc1ccc(NC(=O)c2cnn(-c3ccc(F)cc3)c2O)cc1C#N`, 207 to 208 °C. As for `O=C(Nc1cccc(Br)c1)N(Cc1ccccc1)Cc1ccccc1`, the figure is 102 to 103 °C; as for `CCCCCCCCCCCCc1cnn(C(C(=O)O)c2ccccc2)n1` (stereo unspecified), 94 to 98 °C.

Molecule `CN1CC(=Cc2c(F)c(F)c(N=[N+]=[N-])c(F)c2F)C(=O)C(=Cc2c(F)c(F)c(N=[N+]=[N-])c(F)c2F)C1` came in with a melting point of 153 °C. As for `N=c1sc2cc(OC(F)(F)F)ccc2n1CC(N)=O`, the figure is 228 °C. The molecule `COC(=O)C(=Cc1cc(OC)c(OC)cc1Br)c1ccccc1C(=O)O` displayed a melting point of 129 to 130 °C.

`CC(=O)N1CCN(Cc2nnc(-c3cc4cccc(N(C)S(=O)(=O)c5cccs5)c4[nH]3)s2)CC1`: the melting point fell in the range of 194 to 195 °C. As to `COc1ccc2c(c1)CCc1c-2cc(-c2ccccc2)n1-c1ccc(O)c(C(=O)O)c1`, the melting point fell in the range of 233 to 234 °C.

Turning to `COC(=O)COCCOc1ccc([N+](=O)[O-])cc1`, the melting point lay in the range of 96 to 97.8 °C. Consider `CSc1c(C)cc(O)c(C(=O)Nc2ccc(S(=O)(=O)C(F)(F)F)cc2Cl)c1C`, for which the melting point lay within 201 to 202 °C.
